Reference: patent US20130012546A1 (priority 2009, published 2013)

Legend:
Phytophthora infestans = format: in vivo; conditions: tomato plants, preventive spray, 100 ppm of active ingredient, evaluated 7 days after inoculation
Plasmopara viticola = test: Plasmopara test (grapevines) / preventive; format: in vivo; conditions: preventive spray, 10 ppm of active ingredient, evaluated 6 days after inoculation
Description: Plasmopara Test (Grapevines)/Preventive
Solvent: 24.5 parts by weight of acetone • 24.5 parts by weight of dimethylacetamide Emulsifier: 1 part by weight of alkylaryl polyglycol ether
To produce a suitable preparation of active compound, 1 part by weight of active compound is mixed with the stated amounts of solvent and emulsifier, and the concentrate is diluted with water to the desired concentration.
To test for preventive activity, young plants are sprayed with the preparation of active compound at the stated rate of application. After the spray coating has dried on, the plants are inoculated with an aqueous spore suspension of Plasmopara viticola and then remain for 1 day in an incubation cabinet at approximately 20° C. and a relative atmospheric humidity of 100%. The plant is subsequently placed for 4 days in a greenhouse at approximately 21° C. and a relative atmospheric humidity of approximately 90%. The plants are then misted and placed for 1 day in an incubation cabinet.
The test is evaluated 6 days after the inoculation. 0% means an efficacy which corresponds to that of the untreated control, while an efficacy of 100% means that no disease is observed.

Pythium ultimum = test: Pythium test (cotton) / seed treatment; format: in vivo; conditions: 10 g/dt seed of active ingredient, emerged seedlings counted after 7 days in greenhouse
Description: Pythium Test (Cotton)/Seed Treatment
The test is performed under greenhouse conditions.
Cotton seeds, treated with the active compound or compound combinations, solved in N-methyl-2-pyrrolidon and diluted with water to the desired dosages, were sown in 6*6 cm pots containing 4 cm of a 1:1 mix of steamed field soil and sand.
Perlite was incubated with mycelium fragments of Pythium ultimum. 1 ml of infected perlite was scattered between the treated cotton seeds. Seeds were then covered by light expanded clay aggregate. Pots were incubated in the greenhouse 7 days at 20° C. and 80% relative humidity.
Assessment consisted of counting of emerged seedlings. 0% means an efficacy which corresponds to that of the control, while an efficacy of 100% means that all seedlings have emerged.

logP(HCOOH) by HPLC = format: physicochemical; conditions: HPLC on reversed phase columns, pH 2.7, 0.1% formic acid in water / acetonitrile, linear gradient 10% to 95% acetonitrile; EEC directive 79/831 Annex V.A8

Structure (SMILES)	Efficacy % (Phytophthora infestans)	Efficacy % (Plasmopara viticola)	Efficacy % (Pythium ultimum)	log p (logP(HCOOH) by HPLC)
C=C=CCCC(=O)Nc1cccc(CON=C(c2ccccc2)c2nnnn2C)n1 [Example 101]	93%	81%	100%	3.21
C#CCOC(C)C(=O)Nc1nc(CO/N=C(/c2ccccc2)c2nnnn2C)cs1 (stereo not drawn) [Example 51]	95%	96%	100%	2.82
Cn1nnnc1C(=NOCc1csc(NC(=O)COC2CCCCC2)n1)c1ccccc1 [Example 12]	92%	94%	100%	3.85
CC(CC1CC1)OC(=O)Nc1nc(CON=C(c2ccccc2)c2nnnn2C)cs1 (stereo not drawn) [Example 64]	95%	94%		3.83
CC(=NOCC(=O)Nc1nc(CON=C(c2ccccc2)n2nnnc2C)cs1)c1ccccc1 [Example 39]	98%		85%	3.79
CC(OC1CCCCC1)C(=O)Nc1nc(CON=C(c2ccccc2)c2nnnn2C)cs1 (stereo not drawn) [Example 92]	100%	93%		4.14
Cc1nnnn1C(=NOCc1cccc(NC(=O)OC(C)CC2CC2)n1)c1ccccc1 (stereo not drawn) [Example 14]	95%	94%		4.24
Cc1nnnn1C(=NOCc1csc(NC(=O)COC2CCCCC2)n1)c1ccccc1 [Example 78]	100%	79%		3.89
CON=C(C(=O)Nc1nc(CON=C(c2ccccc2)c2nnnn2C)cs1)c1ccccc1Cl [Example 10]	95%	90%	88%	3.87
C=C=CCCC(=O)Nc1nc(CON=C(c2ccccc2)c2nnnn2C)cs1 [Example 102]	80%	83%		3.11
Cn1nnnc1C(=NOCc1csc(NC(=O)COC2CCCCCC2)n1)c1ccccc1 [Example 91]	100%	94%	96%	4.23
C#CCOC(C)C(=O)Nc1nc(CO/N=C(/c2ccccc2)n2nnnc2C)cs1 (stereo not drawn) [Example 53]	95%	95%	100%	2.92
